# Measured values taken from patent US3982931A, “N,N-di-sec.butyl-benzamide herbicides” (priority 1967, dated 1976).
# Legend:
# Assay in all cases: herbicidal activity, soil treatment one day after sowing
# Type in all cases: in vivo
# [1] = tested on: amaranthus retroflexus L.; conditions: 6 kg/ha
# Excerpt: (§1) The infesting species and the agrarian species have been indicated in Table 1 by letters, as follows:
# A = amaranthus retroflexus L.
# (§2) Method of evaluation of the results (of tests):
# (§3) 1 slight differences with respect to the control;
# (§4) 3 = considerable activity with damages that definitely impair the further development of most of the small plants; an activity degree already useful for practical purposes;
# (§5) 4 = maximum of activity with lack of germination or total containment of the small plants in the emerging stage.
# (§6) In the case of an intermediate activity between two classes of the scale, both values are recorded with the one which corresponds to the preeminent activity preceding.
# (§7) TABLE 2 reports the activity data of other compounds that fall within the class which is the object of this invention.
# (§8) TABLE 3 reports data on the herbicidal activity against infesting herbs, while TABLE 4 reports data concerning the activity on useful species of agricultural cultivations. These tables employ the criterion explained previously. […]
# [2] = tested on: setaria glauca L.
# Excerpt: as §1, §2, §3, §4, §5
# In the case of an intermediate activity between two classes of the scale, both values are recorded with the one which corresponds to the preeminent activity preceding. […]
# as §8
# [3] = tested on: vicia sativa L.
# Excerpt: as §1, §2, §3, §4, §5, §6, §7
# [4] = tested on: chenopodium album L.
# Excerpt: as §1, §2, §3, §4, §5, §6, §7, §8
# [5] = tested on: artemisia vulgaris L.
# Excerpt: as §1
# B = artemisia vulgaris L.
# as §2, §3, §4, §5, §6, §7, §8
# [6] = tested on: echinocloa crus-galli R.S.
# Excerpt: as §1
# D = echinocloa crus-galli R.S.
# as §2, §3, §4, §5, §6, §7, §8
SMILES,"activity on A, 0-4 scale [1]","activity on E, 0-4 scale ([2]; 6 kg/ha)","activity on F, 0-4 scale ([3]; 6 kg/ha)","activity on C, 0-4 scale ([4]; 6 kg/ha)","activity on B, 0-4 scale ([5]; 6 kg/ha)","activity on D, 0-4 scale ([6]; 6 kg/ha)","activity on E, 0-4 scale ([2]; 3 kg/ha)","activity on F, 0-4 scale ([3]; 3 kg/ha)","activity on C, 0-4 scale ([4]; 3 kg/ha)","activity on B, 0-4 scale ([5]; 3 kg/ha)","activity on D, 0-4 scale ([6]; 3 kg/ha)","activity on E, 0-4 scale ([2]; 2 kg/ha)","activity on E, 0-4 scale ([2]; 4 kg/ha)","activity on D, 0-4 scale ([6]; 2 kg/ha)","activity on D, 0-4 scale ([6]; 4 kg/ha)"
"O=C(O)c1ccc(Cl)cc1Cl [PA441, 2,4-dichloro-benzoic acid, reference compound]",0,0,0,0,0,0,,,,,,,,,
"Cc1cccc(C(=O)N(C(C)C)C(C)C)c1 [PA385, 3,methyl-N,N-di-isopropyl-benzamide, reference compound]",1-2,0-1,0-1,1,2,,,,,,,,,,
"O=C(O)c1ccc(Cl)c(Cl)c1 [3,4-dichloro-benzoic acid, reference compound]",0,0,0,0,0,0,,,,,,,,,
"CC(C)CN(CC(C)C)C(=O)c1cccc(Br)c1 [PA521, 3-bromo-N,N-di-isobutyl-benzamide, reference compound]",1,1-2,0,1,1,1-2,,,,,,,,,
"O=C(O)c1cc(Cl)cc(Cl)c1Cl [PA304, 2,3,5-trichloro-benzoic acid, reference compound]",1,0,3,0,1,0,,,,,,,,,
"CCN(CC)C(=O)c1ccc(Cl)cc1Cl [PA283, 2,4-dichloro-N,N-diethyl-benzamide, reference compound]",1,1,1,1-2,2,1,,,,,,,,,
"O=C(O)c1cccc(Br)c1 [PA577, 3,bromo-benzoic acid, reference compound]",0,0,0,0,0,0,,,,,,,,,
"CCCCN(C(=O)c1cccc(Br)c1)C(C)CC (centres unmarked) [PA525, 3-bromo-N,n.butyl-N-sec.butyl-benzamide]",1-2,3-4,0,1,0-1,3,,,,,,,,,
"CC(C)CN(CC(C)C)C(=O)c1ccc(Cl)c(Cl)c1 [PA259, 3,4-dichloro-N,N-di-iso-butyl-benzamide, reference compound]",1-2,,0-1,1-2,2,,,,,,,,,,
"CCCCN(CCCC)C(=O)c1cccc(Br)c1 [PA396, 3-bromo-N,N-di-n,butyl-benzamide, reference compound]",1,0,0,0-1,1-2,0-1,,,,,,,,,
"CCCN(CCC)C(=O)c1cccc(C)c1 [PA384, 3,methyl-N,N-di-n.propyl-benzamide, reference compound]",1,0-1,1-2,2,2,1-2,,,,,,,,,
"CCCCN(CC)C(=O)c1ccc(Cl)c(Cl)c1 [PA325, 3,4-dichloro-N-ethyl,N-n.butyl-benzamide, reference compound]",3,0-1,0,2,2,0-1,,,,,,,,,
"CC(C)N(C(=O)c1ccc(Cl)cc1Cl)C(C)C [PA281, 2,4-dichloro-N,N-di-isopropyl-benzamide, reference compound]",1-2,0-1,0,0-1,2,0-1,,,,,,,,,
"Cc1cccc(C(=O)O)c1 [PA442, 3,methyl-benzoic acid, reference compound]",1,0,0,0,0,0,,,,,,,,,
"CCCCN(CCCC)C(=O)c1ccc(Cl)c(Cl)c1 [PA105, 3,4-dichloro-N,N-di-n.butyl-benzamide, reference compound]",1-2,2,0-1,1,1-2,1,1,0,0-1,0-1,0-1,,,,
"CCC(C)N(C(=O)c1cc(Cl)ccc1Br)C(C)CC (centres unmarked) [PA504, 2-bromo,5-chloro-N,N-di-sec.butyl-benzamide]",2,4,0-1,2,1-2,3-4,3,,,,2-3,2-3,3-4,2-3,3
"O=C(O)c1cc(Cl)cc(Cl)c1 [PA440, 3,5-dichloro-benzoic acid, reference compound]",0,0,0,0,0,0,,,,,,,,,
"CCCN(CCC)C(=O)c1ccc(Cl)cc1Cl [PA200, 2,4-dichloro-N,N-di-n-propyl-benzamide, reference compound]",3,1,0-1,2-3,2-3,2,,,,,,,,,
"CCCN(CCC)C(=O)c1cccc(Cl)c1 [PA322, 3,chloro-N,N-di-n.propyl-benzamide, reference compound]",1,0-1,,0-1,1-2,1,,,,,,,,,
"CCC(C)N(C(=O)c1ccc(Cl)c(I)c1)C(C)CC (centres unmarked) [PA614, 4-chloro,3-iodo-N,N-di-sec.butyl-benzamide]",1,,0,1,0-1,3,,,,,,,,,
"CCC(C)N(CC(C)C)C(=O)c1ccc(Cl)c(Cl)c1 (centres unmarked) [PA566, 3,4-dichloro-N-isobutyl,N-sec.butyl-benzamide]",3,4,0-1,3,2-3,,,,,,,,,,
